According to ChEMBL document CHEMBL1154851, “Synthesis, antibacterial and antifungal activities of 6,5 fused steroidal oxazoles in cholestane series” (2010):
Converted amounts (≈) assume the structure as drawn.

Columns and labels:
Candida albicans [1] = experiment: Antimicrobial activity against Candida albicans at 30 ug after 48 hrs by disk diffusion method; type: functional, organism-based
Penicillium [2] = experiment: Antimicrobial activity against Penicillium at 30 ug after 48 hrs by disk diffusion method; type: functional, organism-based
Nakaseomyces glabratus [3] = experiment: Antimicrobial activity against Candida glabrata at 30 ug after 48 hrs by disk diffusion method; type: functional, organism-based
Fusarium oxysporum [4] = experiment: Antimicrobial activity against Fusarium oxysporum at 30 ug after 48 hrs by disk diffusion method; type: functional, organism-based
Aspergillus niger [5] = experiment: Antimicrobial activity against Aspergillus niger at 30 ug after 48 hrs by disk diffusion method; type: functional, organism-based
Nakaseomyces glabratus [6] = experiment: Antimicrobial activity against Candida glabrata at 100 ug/ml after 48 hrs by disk diffusion method; type: functional; conditions: read-out: DIZ
Penicillium [7] = experiment: Antimicrobial activity against Penicillium at 100 ug/ml after 48 hrs by disk diffusion method; type: functional; conditions: read-out: DIZ
Bacillus subtilis [8] = experiment: Antimicrobial activity against Bacillus subtilis after 18 hrs by disk diffusion method; type: functional
Streptococcus pyogenes [9] = experiment: Antimicrobial activity against Streptococcus pyogenes after 18 hrs by disk diffusion method; type: functional
Staphylococcus aureus [10] = experiment: Antimicrobial activity against Staphylococcus aureus after 18 hrs by disk diffusion method; type: functional
Pseudomonas aeruginosa [11] = experiment: Antimicrobial activity against Pseudomonas aeruginosa after 18 hrs by disk diffusion method; type: functional
Salmonella enterica [12] = experiment: Antimicrobial activity against Salmonella Typhimurium after 18 hrs by disk diffusion method; type: functional, Salmonella enterica subsp. enterica serovar Typhimurium
Escherichia coli [13] = experiment: Antimicrobial activity against Escherichia coli after 18 hrs by disk diffusion method; type: functional
Bacillus subtilis [14] = experiment: Antimicrobial activity against Bacillus subtilis after 18 hrs by macrodilution test; type: functional
Streptococcus pyogenes [15] = experiment: Antimicrobial activity against Streptococcus pyogenes after 18 hrs by macrodilution test; type: functional
Staphylococcus aureus [16] = experiment: Antimicrobial activity against Staphylococcus aureus after 18 hrs by macrodilution test; type: functional
Pseudomonas aeruginosa [17] = experiment: Antimicrobial activity against Pseudomonas aeruginosa after 18 hrs by macrodilution test; type: functional
Salmonella enterica [18] = experiment: Antimicrobial activity against Salmonella Typhimurium after 18 hrs by macrodilution test; type: functional, Salmonella enterica subsp. enterica serovar Typhimurium
Escherichia coli [19] = experiment: Antimicrobial activity against Escherichia coli after 18 hrs by macrodilution test; type: functional
Candida albicans [20] = experiment: Antimicrobial activity against Candida albicans at 100 ug/ml after 48 hrs by disk diffusion method; type: functional; conditions: read-out: DIZ
Fusarium oxysporum [21] = experiment: Antimicrobial activity against Fusarium oxysporum at 100 ug/ml after 48 hrs by disk diffusion method; type: functional; conditions: read-out: DIZ
Aspergillus niger [22] = experiment: Antimicrobial activity against Aspergillus niger at 100 ug/ml after 48 hrs by disk diffusion method; type: functional; conditions: read-out: DIZ

Compound	zone of inhibition at 100 µg/mL (Nakaseomyces glabratus [6]) [mm]	zone of inhibition at 100 µg/mL (Penicillium [7]) [mm]	inhibition zone (IZ) (Bacillus subtilis [8]) [mm]	inhibition zone (IZ) (Streptococcus pyogenes [9]) [mm]	inhibition zone (IZ) (Staphylococcus aureus [10]) [mm]	inhibition zone (IZ) (Pseudomonas aeruginosa [11]) [mm]	inhibition zone (IZ) (Salmonella enterica [12]) [mm]	inhibition zone (IZ) (Escherichia coli [13]) [mm]	MIC (Bacillus subtilis [14]) [µg/mL]	MIC (Streptococcus pyogenes [15]) [µg/mL]	MIC (Staphylococcus aureus [16]) [µg/mL]	MIC (Pseudomonas aeruginosa [17]) [µg/mL]	MIC (Salmonella enterica [18]) [µg/mL]	MIC (Escherichia coli [19]) [µg/mL]	zone of inhibition at 100 µg/mL (Candida albicans [20]) [mm]	zone of inhibition at 100 µg/mL (Fusarium oxysporum [21]) [mm]	zone of inhibition at 100 µg/mL (Aspergillus niger [22]) [mm]	also measured
NYSTATIN	–	–	–	–	–	–	–	–	–	–	–	–	–	–	–	–	–	inhibition zone (IZ) (Candida albicans [1]): 29 mm; inhibition zone (IZ) (Penicillium [2]): 24.5 mm; inhibition zone (IZ) (Nakaseomyces glabratus [3]): 29 mm; inhibition zone (IZ) (Fusarium oxysporum [4]): 19.5 mm; inhibition zone (IZ) (Aspergillus niger [5]): 19.5 mm
CC(=O)O[C@H]1CC[C@]2(C)[C@H]3CC[C@]4(C)[C@@H]([C@H](C)CCCC(C)C)CC[C@H]4[C@@H]3C=C3N=C(N)O[C@@]32C1	10.1	15.1	13.1	12.5	12.8	15	13.2	14.1	32 (≈ 66 µM)	128 (≈ 264 µM)	128 (≈ 264 µM)	64 (≈ 132 µM)	128 (≈ 264 µM)	128 (≈ 264 µM)	20.1	12.1	11.2	–
CC(C)CCC[C@@H](C)[C@H]1CC[C@H]2[C@@H]3C=C4N=C(N)O[C@@]45C[C@@H](Cl)CC[C@]5(C)[C@H]3CC[C@]12C	15.2	16.2	15.2	15.1	15.1	16.5	14.1	16.1	64 (≈ 139 µM)	128 (≈ 278 µM)	64 (≈ 139 µM)	64 (≈ 139 µM)	64 (≈ 139 µM)	128 (≈ 278 µM)	21.5	13.1	12.5	–
O=C(N[C@H](CO)[C@H](O)c1ccc([N+](=O)[O-])cc1)C(Cl)Cl [CHLORAMPHENICOL]	–	–	26.8	22.4	21	17.1	25.2	20	32 (≈ 99 µM)	32 (≈ 99 µM)	32 (≈ 99 µM)	32 (≈ 99 µM)	32 (≈ 99 µM)	32 (≈ 99 µM)	–	–	–	–
CC(C)CCC[C@@H](C)[C@H]1CC[C@H]2[C@@H]3C=C4N=C(N)O[C@@]45CCCC[C@]5(C)[C@H]3CC[C@]12C	9.2	14.5	12.1	11.2	10.8	13.5	11.5	13.1	128 (≈ 300 µM)	256 (≈ 600 µM)	128 (≈ 300 µM)	128 (≈ 300 µM)	128 (≈ 300 µM)	256 (≈ 600 µM)	19.1	10.1	10.1	–
